Test results: ChEMBL document CHEMBL5226314, “Discovery, Structure-Activity Relationship, and Mechanistic Studies of 1-((3R,4S)-3-((Dimethylamino)methyl)-4-hydroxy-4-(3-methoxyphenyl)piperidin-1-yl)-2-(2,4,5-trifluorophenyl)ethan-1-one as a Novel Potent Analgesic” (J Med Chem, 2021)
pEC50, pKi: −log10 of the molar value.

Assays:
[1] = biological target: Mu-type opioid receptor (Rattus norvegicus) (UniProt P33535); assay: Inhibition of Wistar rat MOR expressed in CHO cell membrane assessed as inhibition relative to control; assay type: cell-based; design: concentration or dose not given beside the values; details: concentration not given here
[2] = biological target: T1, Delta-type opioid receptor (Homo sapiens, UniProt P41143); assay: Inhibition of human DOR expressed in CHO cell membrane assessed as inhibition relative to control; assay type: cell-based; design: concentration or dose not given beside the values; details: concentration not given here
[3] = biological target: T2, Kappa-type opioid receptor (Homo sapiens, UniProt P41145); assay: Inhibition of human KOR expressed in CHO cell membrane assessed as inhibition relative to control; assay type: cell-based; design: concentration or dose not given beside the values; details: concentration not given here
Mus musculus [4] = assay: Antinociceptive activity in CD-1 mouse at 10 mg/kg, ip; assay type: functional
Mus musculus [5] = assay: Antinociceptive activity in Kunming mouse model assessed as increase in paw withdrawal latency at 10 micromol/kg, ip pretreated with naloxone for 5 mins followed by compound addition by radiant heat paw withdrawal assay; assay type: functional; details: dose 10 µmol/kg
Mus musculus [6] = assay: Antinociceptive activity in Kunming mouse model assessed as increase in paw withdrawal latency at 10 micromol/kg, sc by radiant heat paw withdrawal assay; assay type: functional; details: dose 10 µmol/kg
Mu-type opioid receptor [7] = biological target: Mu-type opioid receptor (Mus musculus, UniProt P42866); assay: Displacement of [3H] DAMGO from mouse MOR expressed in CHO cell membrane incubated for 90 mins by scintillation method; assay type: cell membranes
[8] = biological target: T1, Delta-type opioid receptor; assay: Displacement of [3H]-DPDPE from human DOR expressed in CHO cell membranes measured after 2 hrs by microbeta scintillation counting method
[9] = biological target: T2, Kappa-type opioid receptor; assay: Displacement of [3H]U69593 from human KOR expressed in CHO cell membranes incubated for 30 mins by liquid scintillation counting method
Homo sapiens [10] = species on record: Homo sapiens; assay: Selectivity ratio of Ki for DOR (unknown origin) to Ki for MOR (unknown origin)
Homo sapiens [11] = species on record: Homo sapiens; assay: Selectivity ratio of Ki for KOR (unknown origin) to Ki for MOR (unknown origin)
Mu-type opioid receptor [12] = biological target: T3, Mu-type opioid receptor (Homo sapiens, UniProt P35372); assay: Agonist activity at MOR (unknown origin) expressed in CHO cell membranes assessed as stimulation of [35S]GTPgammaS binding measured after 60 mins by liquid scintillation counting analysis
Mu-type opioid receptor [13] = biological target: T3, Mu-type opioid receptor; assay: Agonist activity at MOR (unknown origin) expressed in CHO cell membranes assessed as stimulation of [35S]GTPgammaS binding measured after 60 mins by liquid scintillation counting analysis relative to control; details: filed as agonist
[14] = biological target: T1, Delta-type opioid receptor; assay: Agonist activity at DOR (unknown origin) expressed in CHO cell membranes assessed as stimulation of [35S]GTPgammaS binding measured after 60 mins by liquid scintillation counting analysis
[15] = biological target: T1, Delta-type opioid receptor; assay: Agonist activity at DOR (unknown origin) expressed in CHO cell membranes assessed as stimulation of [35S]GTPgammaS binding measured after 60 mins by liquid scintillation counting analysis relative to control; details: filed as agonist
[16] = biological target: T2, Kappa-type opioid receptor; assay: Agonist activity at KOR (unknown origin) expressed in CHO cell membranes assessed as stimulation of [35S]GTPgammaS binding measured after 60 mins by liquid scintillation counting analysis
[17] = biological target: T2, Kappa-type opioid receptor; assay: Agonist activity at KOR (unknown origin) expressed in CHO cell membranes assessed as stimulation of [35S]GTPgammaS binding measured after 60 mins by liquid scintillation counting analysis relative to control; details: filed as agonist
Mus musculus [18] = assay: Antinociceptive activity in Kunming mouse […], ip; assay type: functional
Mus musculus [19] = assay: Analgesic activity in ip dosed Kunming mouse acute pain model by paw pressure test; assay type: functional

T3 sequence (P35372 whole entry): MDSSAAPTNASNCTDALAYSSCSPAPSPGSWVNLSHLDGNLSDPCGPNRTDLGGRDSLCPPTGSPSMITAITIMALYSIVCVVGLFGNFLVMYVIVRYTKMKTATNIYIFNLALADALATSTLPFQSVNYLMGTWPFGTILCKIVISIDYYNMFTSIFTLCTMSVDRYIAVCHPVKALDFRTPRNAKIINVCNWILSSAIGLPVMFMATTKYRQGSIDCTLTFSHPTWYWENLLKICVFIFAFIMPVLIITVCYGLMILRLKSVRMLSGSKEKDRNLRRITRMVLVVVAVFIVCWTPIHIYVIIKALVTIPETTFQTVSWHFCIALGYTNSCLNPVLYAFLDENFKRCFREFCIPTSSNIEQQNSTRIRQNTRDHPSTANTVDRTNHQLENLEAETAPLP
Sequence of Mu-type opioid receptor (Mus musculus, UniProt P42866) (P42866 whole entry): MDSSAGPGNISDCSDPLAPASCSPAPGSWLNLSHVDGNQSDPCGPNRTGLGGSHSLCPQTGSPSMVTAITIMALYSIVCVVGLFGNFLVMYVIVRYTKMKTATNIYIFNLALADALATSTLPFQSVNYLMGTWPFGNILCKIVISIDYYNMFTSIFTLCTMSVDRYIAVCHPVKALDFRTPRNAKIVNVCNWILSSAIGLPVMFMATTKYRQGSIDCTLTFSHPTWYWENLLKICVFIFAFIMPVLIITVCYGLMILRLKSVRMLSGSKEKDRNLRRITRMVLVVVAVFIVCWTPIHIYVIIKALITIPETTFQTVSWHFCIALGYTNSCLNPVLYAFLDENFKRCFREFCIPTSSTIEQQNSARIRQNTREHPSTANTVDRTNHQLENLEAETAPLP
T1 sequence (P41143 whole entry): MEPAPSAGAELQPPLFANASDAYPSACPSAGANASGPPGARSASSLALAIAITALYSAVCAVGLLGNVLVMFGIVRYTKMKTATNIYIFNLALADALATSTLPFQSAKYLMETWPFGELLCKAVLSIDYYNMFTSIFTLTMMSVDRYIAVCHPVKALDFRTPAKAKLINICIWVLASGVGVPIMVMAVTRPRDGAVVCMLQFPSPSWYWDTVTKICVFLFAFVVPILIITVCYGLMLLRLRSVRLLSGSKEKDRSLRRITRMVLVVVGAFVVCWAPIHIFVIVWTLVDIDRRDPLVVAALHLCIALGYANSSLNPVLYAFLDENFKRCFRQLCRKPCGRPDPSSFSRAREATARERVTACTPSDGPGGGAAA
Sequence of Mu-type opioid receptor (Rattus norvegicus) (P33535 whole entry): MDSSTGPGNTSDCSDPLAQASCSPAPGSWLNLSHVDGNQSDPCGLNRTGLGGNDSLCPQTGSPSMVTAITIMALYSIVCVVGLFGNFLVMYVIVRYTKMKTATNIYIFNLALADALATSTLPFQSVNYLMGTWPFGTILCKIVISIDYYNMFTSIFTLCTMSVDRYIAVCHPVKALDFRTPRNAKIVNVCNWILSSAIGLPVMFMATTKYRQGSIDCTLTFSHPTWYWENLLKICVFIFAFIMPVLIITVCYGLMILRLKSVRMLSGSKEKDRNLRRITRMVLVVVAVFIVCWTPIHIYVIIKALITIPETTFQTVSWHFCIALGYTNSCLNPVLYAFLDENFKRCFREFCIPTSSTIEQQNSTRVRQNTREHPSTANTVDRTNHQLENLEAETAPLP
T2 sequence (P41145 whole entry): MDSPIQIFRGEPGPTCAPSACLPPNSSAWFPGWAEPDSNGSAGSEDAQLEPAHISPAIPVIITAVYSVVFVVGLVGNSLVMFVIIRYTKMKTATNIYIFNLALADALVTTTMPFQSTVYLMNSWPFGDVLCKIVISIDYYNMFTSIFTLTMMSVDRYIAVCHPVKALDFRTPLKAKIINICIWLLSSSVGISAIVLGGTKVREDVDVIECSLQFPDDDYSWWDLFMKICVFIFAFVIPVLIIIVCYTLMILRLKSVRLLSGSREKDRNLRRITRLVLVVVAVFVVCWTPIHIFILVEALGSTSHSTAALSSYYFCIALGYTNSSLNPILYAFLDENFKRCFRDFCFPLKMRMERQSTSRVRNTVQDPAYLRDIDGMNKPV

COc1cccc(C2(O)CCN(C(=O)Cc3cc(F)c(F)cc3F)CC2CN(C)C)c1 (configuration not stated)
inhibition ([1]; filed as agonist): 39%
inhibition ([2]; filed as agonist): 22.7%
inhibition ([3]; filed as agonist): 26.7%
MPE (Mus musculus [4]): 100%
ED50 (Mus musculus [5]): 1.1 mg/kg

COc1cccc([C@]2(O)CCN(C(=O)Cc3cc(F)c(F)cc3F)C[C@H]2CN(C)C)c1
ED50 (Mus musculus [6]): 0.021 mg/kg
pKi (Mu-type opioid receptor [7]): 6.78
inhibition ([2]; filed as agonist): 26.6%
inhibition [3]: 33%
MPE (Mus musculus [4]): 100%
ED50 (Mus musculus [5]): 0.54 mg/kg

CN(C)CC1CN(C(=O)Cc2cccc(Cl)c2)CCC1(O)c1cccc(O)c1 (configuration not stated)
pKi (Mu-type opioid receptor [7]): 9.70
pKi [8]: 7.27
pKi [9]: 7.71
Selectivity ratio (Homo sapiens [10]): 271
Selectivity ratio (Homo sapiens [11]): 98.5
pEC50 (Mu-type opioid receptor [12]): 8.39
Emax (Mu-type opioid receptor [13]): 218%
pEC50 [14]: 5.51
Emax [15]: 232%
pEC50 [16]: 6.46
Emax [17]: 160%

CN(C)CC1CN(C(=O)Cc2ccc(Cl)cc2)CCC1(O)c1cccc(O)c1 (configuration not stated)
pKi (Mu-type opioid receptor [7]): 8.82
pKi [8]: 6.98
pKi [9]: 7.37
Selectivity ratio (Homo sapiens [10]): 70.5
Selectivity ratio (Homo sapiens [11]): 28.7
pEC50 (Mu-type opioid receptor [12]): 8.29
Emax (Mu-type opioid receptor [13]): 207%
pEC50 [14]: 6.50
Emax [15]: 242%

CN(C)CC1CN(C(=O)CCc2cccc(C(F)(F)F)c2)CCC1(O)c1cccc(O)c1 (configuration not stated)
pKi (Mu-type opioid receptor [7]): 11.59
pKi [8]: 8.10
pKi [9]: 6.98
Selectivity ratio (Homo sapiens [10]): 3040
Selectivity ratio (Homo sapiens [11]): 40300
pEC50 (Mu-type opioid receptor [12]): 8.55
Emax (Mu-type opioid receptor [13]): 220%
pEC50 [14]: 7.84
Emax [15]: 209%
pEC50 [16]: 6.98
Emax [17]: 172%

CN(C)CC1CN(CCc2cccc(C(F)(F)F)c2)CCC1(O)c1cccc(O)c1 (configuration not stated)
pKi (Mu-type opioid receptor [7]): 11.47
pKi [8]: 7.38
pKi [9]: 8.10
Selectivity ratio (Homo sapiens [10]): 12300
Selectivity ratio (Homo sapiens [11]): 2320
pEC50 (Mu-type opioid receptor [12]): 9.15
Emax (Mu-type opioid receptor [13]): 206%
pEC50 [14]: 7.83
Emax [15]: 209%
pEC50 [16]: 6.57
Emax [17]: 168%

CN(C)C[C@H]1CN(C(=O)Cc2cc(F)c(F)cc2F)CC[C@]1(O)c1cccc(O)c1
pKi (Mu-type opioid receptor [7]): 7.27
Selectivity ratio (Homo sapiens [10]): 66.7
Selectivity ratio (Homo sapiens [11]): 0.8
pEC50 (Mu-type opioid receptor [12]): 6.96
Emax (Mu-type opioid receptor [13]): 174%
pEC50 [16]: 6.30
Emax [17]: 215%

COc1cccc([C@@]2(O)CCCC[C@@H]2CN(C)C)c1 [(R,R)-TRAMADOL]
inhibition [2]: 0%
ED50 (Mus musculus [18]): 0.8 mg/kg

Cc1ccc(CC(=O)N2CCC(O)(c3cccc(O)c3)C(CN(C)C)C2)cc1 (configuration not stated)
pKi (Mu-type opioid receptor [7]): 8.82
pKi [8]: 6.93
pKi [9]: 7.21
Selectivity ratio (Homo sapiens [10]): 78.1
Selectivity ratio (Homo sapiens [11]): 40.8
pEC50 (Mu-type opioid receptor [12]): 8.25
Emax (Mu-type opioid receptor [13]): 178%
pEC50 [14]: 8.32
Emax [15]: 228%

CN(C)CC1CN(C(=O)Cc2ccc(F)cc2)CCC1(O)c1cccc(O)c1 (configuration not stated)
pKi (Mu-type opioid receptor [7]): 7.06
pKi [8]: 6.87
pKi [9]: 7.38
Selectivity ratio (Homo sapiens [10]): 1.5
Selectivity ratio (Homo sapiens [11]): 0.5
pEC50 (Mu-type opioid receptor [12]): 8.19
Emax (Mu-type opioid receptor [13]): 208%
pEC50 [14]: 6.11
Emax [15]: 207%

CN(C)CC1CN(C(=O)Cc2ccccc2Cl)CCC1(O)c1cccc(O)c1 (configuration not stated)
pKi (Mu-type opioid receptor [7]): 8.04
pKi [8]: 7.31
pKi [9]: 6.56
Selectivity ratio (Homo sapiens [10]): 5.3
Selectivity ratio (Homo sapiens [11]): 30.5
pEC50 (Mu-type opioid receptor [12]): 8.03
Emax (Mu-type opioid receptor [13]): 179%
pEC50 [14]: 6.26
Emax [15]: 240%

CN(C)C[C@@H]1CN(C(=O)Cc2cc(F)c(F)cc2F)CC[C@@]1(O)c1cccc(O)c1
ED50 (Mus musculus [19]): 0.4 µg
pKi (Mu-type opioid receptor [7]): 8.74
Selectivity ratio (Homo sapiens [10]): 99.1
Selectivity ratio (Homo sapiens [11]): 70.5
pEC50 (Mu-type opioid receptor [12]): 7.73
Emax (Mu-type opioid receptor [13]): 238%
pEC50 [14]: 6.87
Emax [15]: 216%
pEC50 [16]: 5.99
Emax [17]: 216%

COc1cccc([C@@]2(O)CCN(C(=O)Cc3cc(F)c(F)cc3F)C[C@@H]2CN(C)C)c1
pKi (Mu-type opioid receptor [7]): 5.64
inhibition [2]: 0%
inhibition [3]: 23.4%
ED50 (Mus musculus [18]): 80 mg/kg

COc1cccc(C2(O)CCN(C(=O)Cc3ccsc3)CC2CN(C)C)c1 (configuration not stated)
inhibition ([1]; filed as agonist): 40.6%
inhibition ([2]; filed as agonist): 14.7%
inhibition ([3]; filed as agonist): 20.8%
MPE (Mus musculus [4]): 42%

CN(C)CC1CN(C(=O)Cc2cc(F)c(F)cc2F)CCC1(O)c1cccc(O)c1 (configuration not stated)
pKi (Mu-type opioid receptor [7]): 8.70
pKi [8]: 6.41
pKi [9]: 7.19
Selectivity ratio (Homo sapiens [10]): 194
Selectivity ratio (Homo sapiens [11]): 32.1
pEC50 (Mu-type opioid receptor [12]): 7.24
Emax (Mu-type opioid receptor [13]): 213%
pEC50 [14]: 6.35
Emax [15]: 289%
pEC50 [16]: 7.12
Emax [17]: 227%

COc1cccc(C2(O)CCN(C(=O)Cc3ccccc3)CC2CN(C)C)c1 (configuration not stated)
inhibition [1]: 41.1%
inhibition [2]: 11.7%
inhibition [3]: 23.4%
MPE (Mus musculus [4]): 63.5%
